# Measurements taken from US8822699B2, “Heterocyclic compound and use thereof” (Takeda Pharmaceutical Company Limited, priority 2010, dated 2014).
# Read-outs that look alike come from different tables or passages of the source.
# Key:
# [1] = test system: Aβ42 production in primary nerve cells; experiment: Measurement of amyloid β production inhibition rate using primary nerve cell (Aβ42 sandwich ELISA); format: cell-based; conditions: primary nerve cells from cerebral cortex of SD rat fetus, cultured 3 days with compound, culture supernatant, sandwich ELISA for Aβ42, read-out: Aβ42 production inhibitory activity IC50
# Procedure: Measurement of Amyloid β Production Inhibition Rate Using Primary Nerve Cell
# The primary nerve cells were collected from the cerebral cortex of rat fetus (CLEA Japan, Inc.: SD rat, fetal life 17 days of age), and suspended in a neurobasal medium containing B27 supplement, L-glutamine, penicillin-streptomycin (manufactured by Invitrogen) at 500,000 cells/mL. Then, the suspension was seeded in poly L-lysine-coated 96 well plate (manufactured by SUMITOMO BAKELITE) by 100 μL, and cultured at 37° C., 5% CO2 for 7 days. The medium was completely removed, and a new neurobasal medium was added at 75 μL/well. Thereto was added (75 μL/well) a neurobasal medium supplemented with a 2-fold measurement concentration of an evaluation target compound, and the mixture was cultured for 3 days. The culture supernatant was collected from each well, diluted as appropriate, applied to sandwich ELISA between BNT77 antibody-BA27 antibody (for Aβ40) and sandwich ELISA between BNT77 antibody-3005 antibody (for Aβ42), and the amounts of Aβ40 and Aβ42 were measured.
# The amyloid β production inhibition rate (%) of the compound was calculated by the following formula. (1−(amyloid β production amount with addition of compound)/(amyloid β production amount without addition of compound))×100
# The amyloid β production 50% inhibitory rate (IC50 value) was calculated using the statistical analysis software (SAS Preclinical Package) as the concentration of the compound showing 50% inhibition when the amyloid β production amount without addition of the compound is 100%. In addition, a new neurobasal medium was added (75 μL/well) to the cells after collection of the culture supernatant, and the cells were left standing for about 30 min to reach room temperature. Cell-Titer Glo Luminescent Cell Viability Assay (manufactured by Promega) was added at 75 μL/well, and the plate was shaken for 2 min and reacted for about 10 min.
# [2] = test system: Aβ42 (soluble Aβ in hippocampi); experiment: Aβ42 in hippocampi of mice after oral administration (Aβ ELISA); format: in vivo; conditions: C57BL/6J mice, 10 mg/kg orally, hippocampi isolated 3 hours after administration, soluble Aβ42 by two-site sandwich ELISA; for inhibition at 10 mg/kg: Mus musculus, po, 3 h, read-out: Aβ42 production inhibitory activity (% inhibition); for Aβ42 production inhibitory activity (% inhibition): 10 mg/kg
# Procedure: C57BL/6J mice (7-10 weeks old) were purchased from CLEA Japan Inc. Mice were housed in groups and kept on a 12 h-light; 12 h-dark schedule. All mice were given ad libitum access to food and water.
# Each test compound was reconstituted in solubilization buffer ([DMSO (Wako)]: [10% Cremophor (Nakarai)+30% polyethylene glycol 400 (Wako)+60% 2 mol/L Citrate buffer (Wako)]=1:9) and orally administrated at 10 mg/kg.
# Hippocampi was isolated from animals, 3 hours after test compounds were orally administrated. Hippocampi were homogenized in ice-cold Tris-extraction buffer (50 mmol/L Tris-HCl, pH 7.2, 200 mmol/L sodium chloride, 2% protease-free bovine serum albumin, and 0.01% sodium merthiolate) containing protease inhibitor cocktails (Roche, Switzerland). After centrifugation at 15,000 rpm for 15 minutes, the supernatants were subjected to two-site sandwich ELISA to measure amount of soluble Aβ. Aβ42 was quantitated by two-site sandwich ELISA using BNT77, which recognizes Aβ11-28, as a capture antibody and BC05-HRP as a detector antibody, respectively.
"IC50 ([1]; Rattus norvegicus, 72 h)",IC50 [1],SMILES,inhibition at 10 mg/kg [2],Aβ42 production inhibitory activity (% inhibition) [2]
40 nM,–,"COc1cc(-c2nnc3n2CCCC3(Oc2ccc(Cl)c(C(F)(F)F)c2)C(C)(C)O)ccc1-n1cnc(C)n1 (centres unmarked) [Example 139, 2-{8-[4-chloro-3-(trifluoromethyl)-phenoxy]-3-[3-methoxy-4-(3-methyl-1H-1,2,4-triazol-1-yl)phenyl]-5,6,7,8-tetrahydro-[1,2,4]triazolo[4,3-a]pyridin-8-yl}propan-2-ol]",22%,–
42 nM,–,"COc1nc(-c2nnc3n2CCCC3(Oc2cc(F)c(F)c(F)c2)C(C)(C)O)ccc1-n1cnc(C)c1 (centres unmarked) [Example 134, 2-{3-[6-methoxy-5-(4-methyl-1H-imidazol-1-yl)pyridin-2-yl]-8-(3,4,5-trifluorophenoxy)-5,6,7,8-tetrahydro[1,2,4]triazolo[4,3-a]pyridin-8-yl}propan-2-ol]",31%,–
49 nM,–,"COc1nc(-c2nnc3n2CCC[C@]3(Oc2cc(F)c(F)c(F)c2)C(C)(C)O)ccc1-n1cnc(C)c1 [Example 152, 2-{(8R)-3-[6-methoxy-5-(4-methyl-1H-imidazol-1-yl)pyridin-2-yl]-8-(3,4,5-trifluorophenoxy)-5,6,7,8-tetrahydro[1,2,4]triazolo[4,3-a]pyridin-8-yl}propan-2-ol]",57%,–
214 nM,–,"COc1cc(-c2nnc3n2CCCC3(Oc2cc(F)c(F)c(F)c2)C(C)(C)O)ccc1-c1cnn(C)c1 (centres unmarked) [Example 144, 2-{3-[3-methoxy-4-(1-methyl-1H-pyrazol-4-yl)phenyl]-8-(3,4,5-trifluorophenoxy)-5,6,7,8-tetrahydro[1,2,4]triazolo[4,3-a]pyridin-8-yl}propan-2-ol]",31%,–
–,28 nM,"COc1cc(-c2nnn3c2CCCC3(Oc2cc(F)c(F)c(F)c2)C(C)(C)O)ccc1-c1cnc(C)o1 (centres unmarked) [Example 186, 2-{3-[3-methoxy-4-(2-methyl-1,3-oxazol-5-yl)phenyl]-7-(3,4,5-trifluorophenoxy)-4,5,6,7-tetrahydro[1,2,3]triazolo[1,5-a]pyridin-7-yl}propan-2-ol]",22%,–
–,28 nM,"COc1cc(-c2nnc3n2CCCC3(Oc2cc(F)cc(F)c2)C(C)(C)O)ccc1-c1cnc(C)o1 (centres unmarked) [Example 155, 2-{8-(3,5-difluorophenoxy)-3-[3-methoxy-4-(2-methyl-1,3-oxazol-5-yl)phenyl]-5,6,7,8-tetrahydro[1,2,4]triazolo[4,3-a]pyridin-8-yl}propan-2-ol]",–,56%
86 nM,–,"COc1cc(-c2nnc3n2CCCC3(Oc2cc(F)c(F)c(F)c2)C(C)(C)O)c(F)cc1-c1cnc(C)o1 (centres unmarked) [Example 162, 2-{3-[2-fluoro-5-methoxy-4-(2-methyl-1,3-oxazol-5-yl)phenyl]-8-(3,4,5-trifluorophenoxy)-5,6,7,8-tetrahydro[1,2,4]triazolo[4,3-a]pyridin-8-yl}propan-2-ol]",26%,–

# Further lines, the compound ahead of its results:
SMILES,"IC50 ([1]; Rattus norvegicus, 72 h)",IC50 [1],inhibition at 10 mg/kg [2],Aβ42 production inhibitory activity (% inhibition) [2]
"COc1cc(-c2nnc3n2CCCC3(COc2ccc(Cl)cc2)C(C)(C)O)ccc1-c1cnc(C)o1 (centres unmarked) [Example 127, 2-{8-[(4-chlorophenoxy)methyl]-3-[3-methoxy-4-(2-methyl-1,3-oxazol-5-yl)phenyl]-5,6,7,8-tetrahydro[1,2,4]triazolo[4,3-a]pyridin-8-yl}propan-2-ol]",44 nM,–,21%,–
"COc1cc(-c2nnc3n2CCC[C@]3(Oc2cc(F)c(F)c(F)c2)C(C)(C)O)ccc1-c1cnc(C)o1 [Example 122, 2-{(8R)-3-[3-methoxy-4-(2-methyl-1,3-oxazol-5-yl)phenyl]-8-(3,4,5-trifluorophenoxy)-5,6,7,8-tetrahydro[1,2,4]triazolo[4,3-a]pyridin-8-yl}propan-2-ol]",19 nM,–,54%,–
"COc1cc(-c2nnc3n2CCCC3(Oc2ccc(F)c(F)c2)C(C)(C)O)ccc1-c1cnc(C)o1 (centres unmarked) [Example 124, 2-{8-(3,4-difluorophenoxy)-3-[3-methoxy-4-(2-methyl-1,3-oxazol-5-yl)phenyl]-5,6,7,8-tetrahydro[1,2,4]triazolo[4,3-a]pyridin-8-yl}propan-2-ol]",–,68 nM,41%,–
"CCC(O)(CC)C1(Oc2ccc(Cl)c(F)c2)CCCn2c(-c3ccc(-c4cnc(C)o4)c(OC)c3)nnc21 (centres unmarked) [Example 120, 3-{8-(4-chloro-3-fluorophenoxy)-3-[3-methoxy-4-(2-methyl-1,3-oxazol-5-yl)phenyl]-5,6,7,8-tetrahydro[1,2,4]triazolo-[4,3-a]pyridin-8-yl}pentan-3-ol]",4 nM,–,21%,–
"COc1cc(-c2nnc3n2CCCC3(Oc2ccc(C(F)(F)F)cc2)C(C)(C)O)ccc1-c1cnc(C)o1 (centres unmarked) [Example 132, 2-{3-[3-methoxy-4-(2-methyl-1,3-oxazol-5-yl)phenyl]-8-[4-(trifluoromethyl)phenoxy]-5,6,7,8-tetrahydro[1,2,4]triazolo[4,3-a]pyridin-8-yl}propan-2-ol]",–,19 nM,–,58%
"COc1cc(-c2nnc3n2CCCC3(Oc2ccc(C(F)(F)F)cc2)C(C)(C)O)ccc1-c1cnc(C)o1 (centres unmarked) [Example 104, 2-{3-[3-methoxy-4-(2-methyl-1,3-oxazol-5-yl)phenyl]-8-[4-(trifluoromethyl)phenoxy]-5,6,7,8-tetrahydro[1,2,4]triazolo[4,3-a]pyridin-8-yl}propan-2-ol]",–,41 nM,–,36%
"COc1cc(-c2nnc3n2CCCC3(Oc2ccc(Cl)c(F)c2)C(C)(C)O)ccc1-c1cnc(C)o1 (centres unmarked) [Example 111, 2-{8-(4-chloro-3-fluorophenoxy)-3-[3-methoxy-4-(2-methyl-1,3-oxazol-5-yl)phenyl]-5,6,7,8-tetrahydro[1,2,4]triazolo[4,3-a]pyridin-8-yl}propan-2-ol]",–,10 nM,46%,–
"COc1nc(-c2nnc3n2CCCC3(Oc2ccc(F)c(C(F)(F)F)c2)C(C)(C)O)ccc1-n1cnc(C)c1 (centres unmarked) [Example 2, 2-{8-[4-fluoro-3-(trifluoromethyl)phenoxy]-3-[6-methoxy-5-(4-methyl-1H-imidazol-1-yl)pyridin-2-yl]-5,6,7,8-tetrahydro[1,2,4]triazolo[4,3-a]pyridin-8-yl}propan-2-ol]",–,19 nM,–,48%
"COc1cc(-c2nnc3n2CCCC3(Oc2cccc(C(F)(F)F)c2)C(C)(C)O)ccc1-c1cnc(C)o1 (centres unmarked) [Example 103, 2-{3-[3-methoxy-4-(2-methyl-1,3-oxazol-5-yl)phenyl]-8-[3-(trifluoromethyl)phenoxy]-5,6,7,8-tetrahydro[1,2,4]triazolo[4,3-a]pyridin-8-yl}propan-2-ol]",41 nM,–,42%,–
"COc1cc(-c2nnc3n2CCCC3(Oc2cc(F)c(F)c(F)c2)C(C)(C)O)ccc1-c1cnc(C)o1 (centres unmarked) [Example 99, 2-{3-[3-methoxy-4-(2-methyl-1,3-oxazol-5-yl)phenyl]-8-(3,4,5-trifluorophenoxy)-5,6,7,8-tetrahydro[1,2,4]triazolo[4,3-a]pyridin-8-yl}propan-2-ol]",20 nM,–,34%,–
"COc1cc(-c2nnc3n2CCCC3(CC2CC2)c2ccc(F)c(F)c2)ccc1-c1cnc(C)o1 (centres unmarked) [Example 21, optically active 8-(cyclopropylmethyl)-8-(3,4-difluorophenyl)-3-[3-methoxy-4-(2-methyl-1,3-oxazol-5-yl)phenyl]-5,6,7,8-tetrahydro[1,2,4]triazolo[4,3-a]pyridine]",–,5 nM,39%,–
"COc1cc(-c2nnc3n2CCCC3(Oc2ccc(F)c(F)c2)C(C)(C)O)ccc1-c1cnc(C)o1 (centres unmarked) [Example 92, 2-{8-(3,4-difluorophenoxy)-3-[3-methoxy-4-(2-methyl-1,3-oxazol-5-yl)phenyl]-5,6,7,8-tetrahydro[1,2,4]triazolo[4,3-a]pyridin-8-yl}propan-2-ol]",59 nM,–,–,32%
